Experimental data taken from PubChem BioAssay (NCI).
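Abbreviation: GI50, concentration required for 50% inhibition of growth. TGI: concentration producing complete growth inhibition.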

Experiments:
Assay in all cases: inhibition of tumour cell growth, NCI panel, 384-well format
786-0 renal = tested on: 786-0 renal
A498 renal = tested on: A498 renal
A549 NSCLC = tested on: A549 NSCLC
ACHN renal = tested on: ACHN renal
BT-549 breast = tested on: BT-549 breast
CAKI-1 renal = tested on: CAKI-1 renal
CCRF-CEM leukemia = tested on: CCRF-CEM leukemia
COLO 205 colon = tested on: COLO 205 colon
DU-145 prostate = tested on: DU-145 prostate
EKVX NSCLC = tested on: EKVX NSCLC
HCT-116 colon = tested on: HCT-116 colon
HCT-15 colon = tested on: HCT-15 colon
HL-60(TB) leukemia = tested on: HL-60(TB) leukemia
HOP-62 NSCLC = tested on: HOP-62 NSCLC
HS 578T breast = tested on: HS 578T breast
HT29 colon = tested on: HT29 colon
IGROV1 ovarian = tested on: IGROV1 ovarian
KM12 colon = tested on: KM12 colon
LOX IMVI melanoma = tested on: LOX IMVI melanoma
M14 melanoma = tested on: M14 melanoma
MALME-3M melanoma = tested on: MALME-3M melanoma
MCF7 breast = tested on: MCF7 breast
MDA-MB-231 breast = tested on: MDA-MB-231 breast
MDA-MB-435 melanoma = tested on: MDA-MB-435 melanoma
MDA-MB-468 breast = tested on: MDA-MB-468 breast
MOLT-4 leukemia = tested on: MOLT-4 leukemia
NCI-H226 lung = tested on: NCI-H226 lung
NCI-H23 lung = tested on: NCI-H23 lung
NCI-H322M lung = tested on: NCI-H322M lung
NCI-H460 NSCLC = tested on: NCI-H460 NSCLC
NCI-H522 lung = tested on: NCI-H522 lung
OVCAR-3 ovarian = tested on: OVCAR-3 ovarian
OVCAR-4 ovarian = tested on: OVCAR-4 ovarian
OVCAR-5 ovarian = tested on: OVCAR-5 ovarian
OVCAR-8 ovarian = tested on: OVCAR-8 ovarian
PC-3 prostate = tested on: PC-3 prostate
RPMI-8226 leukemia = tested on: RPMI-8226 leukemia
RXF 393 renal = tested on: RXF 393 renal
SF-268 CNS = tested on: SF-268 CNS
SF-295 CNS = tested on: SF-295 CNS
SF-539 CNS = tested on: SF-539 CNS
SK-MEL-28 melanoma = tested on: SK-MEL-28 melanoma
SK-MEL-5 melanoma = tested on: SK-MEL-5 melanoma
SK-OV-3 ovarian = tested on: SK-OV-3 ovarian
SN12C renal = tested on: SN12C renal
SNB-19 CNS = tested on: SNB-19 CNS
SNB-75 CNS = tested on: SNB-75 CNS
SR leukemia = tested on: SR leukemia
SW-620 colon = tested on: SW-620 colon
T-47D breast = tested on: T-47D breast
TK-10 renal = tested on: TK-10 renal
U251 glioblastoma = tested on: U251 glioblastoma
UACC-257 melanoma = tested on: UACC-257 melanoma
UACC-62 melanoma = tested on: UACC-62 melanoma
UO-31 renal = tested on: UO-31 renal

## COc1ccc2[nH]c3c(c2c1)CCN[C@]31CS[C@@H]2c3c(OC(C)=O)c(C)c4c(c3[C@H](COC1=O)N1[C@@H]2[C@H]2c3c(cc(C)c(OC)c3O)C[C@@H]([C@@H]1O)N2C)OCO4
786-0 renal
  GI50: 0.194 nM
  TGI: 0.348 nM
A498 renal
  GI50: 1.16 nM
  TGI: 2.96 nM
A549 NSCLC
  GI50: 0.65 nM
  TGI: 2.91 nM
ACHN renal
  GI50: 0.435 nM
  TGI: 1.61 nM
BT-549 breast
  GI50: 0.0503 nM
  TGI: 0.113 nM
CAKI-1 renal
  GI50: 0.156 nM
  TGI: 6.95 nM
CCRF-CEM leukemia
  GI50: 0.0192 nM
  TGI: 0.0348 nM
COLO 205 colon
  GI50: 0.432 nM
  TGI: 1.06 nM
DU-145 prostate
  GI50: 0.196 nM
  TGI: 0.367 nM
EKVX NSCLC
  GI50: 0.649 nM
  TGI: 1.49 nM
HCT-116 colon
  GI50: 0.16 nM
HCT-15 colon
  GI50: 0.414 nM
  TGI: 1.06 nM
HL-60(TB) leukemia
  GI50: 0.0524 nM
  TGI: 0.0982 nM
HOP-62 NSCLC
  GI50: 0.0549 nM
  TGI: 0.115 nM
HS 578T breast
  GI50: 0.13 nM
  TGI: 0.372 nM
HT29 colon
  GI50: 0.123 nM
  TGI: 0.42 nM
IGROV1 ovarian
  GI50: 0.416 nM
  TGI: 7.86 nM
KM12 colon
  GI50: 1.44 nM
  TGI: 3.96 nM
LOX IMVI melanoma
  GI50: 0.0682 nM
  TGI: 0.18 nM
M14 melanoma
  GI50: 0.0827 nM
  TGI: 0.191 nM
MALME-3M melanoma
  GI50: 0.0967 nM
  TGI: 0.273 nM
MCF7 breast
  GI50: 0.12 nM
  TGI: 5.95 nM
MDA-MB-231 breast
  GI50: 0.786 nM
  TGI: 2.42 nM
MDA-MB-435 melanoma
  GI50: 0.594 nM
  TGI: 1.1 nM
MDA-MB-468 breast
  GI50: 0.0569 nM
  TGI: 0.119 nM
MOLT-4 leukemia
  GI50: 0.0141 nM
  TGI: 0.0474 nM
NCI-H226 lung
  GI50: 0.109 nM
  TGI: 0.452 nM
NCI-H23 lung
  GI50: 0.0752 nM
  TGI: 0.194 nM
NCI-H322M lung
  GI50: 0.522 nM
  TGI: 1.29 nM
NCI-H460 NSCLC
  GI50: 0.104 nM
  TGI: 0.446 nM
NCI-H522 lung
  GI50: 0.0779 nM
  TGI: 0.261 nM
OVCAR-3 ovarian
  GI50: 0.189 nM
  TGI: 0.863 nM
OVCAR-4 ovarian
  GI50: 2.59 nM
  TGI: 5.77 nM
OVCAR-5 ovarian
  GI50: 0.51 nM
OVCAR-8 ovarian
  GI50: 0.126 nM
  TGI: 0.487 nM
PC-3 prostate
  GI50: 0.337 nM
  TGI: 2.85 nM
RPMI-8226 leukemia
  GI50: 0.0579 nM
  TGI: 0.108 nM
RXF 393 renal
  GI50: 0.0493 nM
  TGI: 0.111 nM
SF-268 CNS
  GI50: 0.0705 nM
  TGI: 0.186 nM
SF-295 CNS
  GI50: 0.0573 nM
  TGI: 0.115 nM
SF-539 CNS
  GI50: 0.0587 nM
  TGI: 0.111 nM
SK-MEL-28 melanoma
  GI50: 0.44 nM
  TGI: 0.877 nM
SK-MEL-5 melanoma
  GI50: 0.0874 nM
  TGI: 0.243 nM
SK-OV-3 ovarian
  GI50: 0.181 nM
  TGI: 9.81 nM
SN12C renal
  GI50: 0.107 nM
  TGI: 0.422 nM
SNB-19 CNS
  GI50: 0.124 nM
SNB-75 CNS
  GI50: 0.0809 nM
  TGI: 0.224 nM
SR leukemia
  GI50: 0.0186 nM
  TGI: 0.0575 nM
SW-620 colon
  GI50: 0.502 nM
  TGI: 6.77 nM
T-47D breast
  GI50: 0.41 nM
  TGI: 2.56 nM
TK-10 renal
  GI50: 2.64 nM
  TGI: 7.17 nM
U251 glioblastoma
  GI50: 0.112 nM
  TGI: 0.554 nM
UACC-257 melanoma
  GI50: 0.428 nM
  TGI: 0.848 nM
UACC-62 melanoma
  GI50: 0.0874 nM
  TGI: 0.31 nM
UO-31 renal
  GI50: 1.68 nM
  TGI: 3.1 nM
